Measurements as given in a melting point compilation (Tetko et al.; mined from patent text by program, amines drawn as free bases though some values may be those of a salt).

| Structure (SMILES) | melting point |
| --- | --- |
| NC1CCN(c2ccc3c4c(cccc24)C(=O)N(O)C3=O)C1 (stereo unspecified) | 238 to 242 °C |
| Cc1oncc1-c1ccc(OC2SCC(O)C(O)C2O)cn1 (stereo unspecified) | 184 °C |
| O=C(NCc1ccc(O)cc1)C12CC3CC(CC(C3)C1)C2 | 196 to 198 °C |
| CCc1nn(C2CCCC2)c2cc(C(=O)Nc3ccc(C(=O)O)cc3)ccc12 | 249 to 251 °C |
| CNc1cc(OCC2CO2)ccc1[N+](=O)[O-] (stereo unspecified) | 113 °C |
| COc1cc2ncc(C#N)c(Nc3ccc(SC)cc3)c2cc1OC | 235 to 237 °C |
| Cc1cccc(C)c1NC(=O)N=C1CCCCCN1C | 128 to 130 °C |
| CC1=CC(OC(=O)c2ccc([N+](=O)[O-])cc2)C(O)C(C)(C)CC1=O (stereo unspecified) | 151 to 152 °C |
| Cc1c(C(=O)O)cnn1-c1c(Cl)cccc1Cl | 180 to 182 °C |
| O=C(O)c1ccc2c(c1)C(=O)c1cc(C(=O)O)ccc1S2(=O)=O | 372 to 375 °C |
| COc1ccccc1Oc1c(Cl)ncnc1NS(=O)(=O)c1ccc(C(C)(C)C)cc1 | 152 °C |
| CC(C)(CO)NC(=O)c1ccccc1-c1ccccc1 | 38.5 to 40.5 °C |
| COCCc1nc2c(N)nc3ccc(Br)cc3c2n1CCCN1CCCC1=O | 185 to 188 °C |
| CNc1ncc(S(=O)(=O)NC(=O)NC(C)C)c(Nc2cccc(C)c2)n1 | 206 to 207 °C |
| CC(C)(C)C(=O)OCN(c1ccc(CN2CCN(Cc3ccccc3)C(=O)C2=O)cc1)c1ncccn1 | 144 to 146 °C |
| CS(=O)(=O)c1cccc(NC(=O)c2cnn3c(C(F)(F)F)cc(-c4ccc(C(F)(F)F)c(Cl)c4)nc23)c1 | 268 °C |
| CC1=NS(=O)(=O)N(C(c2ccccc2)c2ccccc2)C=C1 | 174 to 177 °C |
| COc1ccc(Nc2ccnc(Nc3cc(OC)c(OC)c(OC)c3)n2)cc1 | 210 °C |
| COC(=O)CCC(=O)SCC(=O)NC(C)=O | 111 to 113 °C |
| COc1ccc(C(=O)Nc2ccccc2)cc1NC(=S)Nc1cc(Cl)cc(Cl)c1 | 195 to 197 °C |
| CC(=O)OCC1OC(Cl)C(N=[N+]=[N-])C(OC(C)=O)C1OC1OC(COC(C)=O)C(OC(C)=O)C(OC(C)=O)C1OC(C)=O (stereo unspecified) | 167 to 168 °C |
| CS(=O)(=O)c1ccc(-c2c(-c3ccc(F)cc3)c(OCC(=O)c3ccc(F)cc3)nn2CC(=O)c2ccc(F)cc2)cc1 | 194 to 196 °C |
| CCCC1=C(C(=O)OCC)C(c2ccccc2[N+](=O)[O-])c2c[nH]nc2N1 (stereo unspecified) | 218 °C |
| Oc1nc(Cl)n(CCOc2ccccc2)n1 | 166 °C |

| Structure (SMILES) | melting point |
| --- | --- |
| Fc1cccc(F)c1-c1c(Cl)nc(Cl)n1-c1ccc(Cl)cc1 | 123 to 125 °C |
| C=Cc1ccc(CSCCC(=O)O)cc1 | 77 to 78 °C |
| O[C@@H]1[C@H](O)[C@H](O)CO[C@H]1n1c(Br)nc2cc(Cl)c(Cl)cc21 | 164 to 165 °C |
| O=C1Cc2cc(Oc3ccccc3)ccc2N1 | 148 to 150 °C |
| COc1ccccc1CN[C@H]1CCCN(CCCc2ccccc2)[C@H]1c1ccccc1 (relative stereo) | 120 to 125 °C |
| Cn1cncc1C(O)(c1ccc(C#N)cc1)c1ccc2c(c1)c(-c1cccc(Cl)c1)cc(=O)n2C (stereo unspecified) | 210 °C |
| COC(=O)[C@@H]1C[C@H](C(=O)OC(C)(C)C)N(C(=O)CNC(=O)Nc2ccc(Cl)cc2)[C@@H]1c1ccccc1 (racemic) | 125 °C |
| CC(C)(C)c1cc(-n2nc3ccc(C(F)(F)F)cc3n2)c(O)c(C(C)(C)C)c1 | 131 to 133 °C |
| CCCCCS(=O)(=O)NC(=O)/C=C/c1ccc(OCCOC)cc1Oc1ncc([N+](=O)[O-])cc1C | 148 to 150 °C |
| CCCn1nc(OCc2ccc3ccccc3n2)cc1CO | 95 to 96 °C |
| Cc1c(-c2ccc(Cl)cc2)[nH]c2ccc(OCc3ccccc3)cc12 | 134 to 136 °C |
| Cn1c(COc2ccc(CC3SC(=O)NC3=O)cc2)nc2ccc(OCCc3ccc(NC(=O)Nc4ccc(C(F)(F)F)cc4)cc3)cc21 (stereo unspecified) | 145 to 147 °C |
| CCOP(=O)(CC(=O)Nc1cc2c(Nc3ccc(Br)c(Br)c3)ncnc2cn1)OCC | 120 to 124 °C |
| O=[N+]([O-])c1cccc(O)c1CO | 97 to 99 °C |
| O=c1c2ccccc2nc(-c2ccccc2)n1CCN1CCC(c2c[nH]c3ccccc23)CC1 | 191 °C |
| O=C(O)c1cc(O)c(I)c(O)c1 | 245 to 248 °C |
| CCC(=O)Oc1cccc2c(-c3ccccc3)c3cccc(OC(=O)CC)c3c(OC(=O)CC)c12 | 216 °C |
| CSc1ncc2cc(Oc3ccc(F)cc3F)c(NC(=O)NC(C)(C)C)nc2n1 | 195 to 201 °C |
| O=c1oc(-c2ccccc2)cc(O)c1Sc1cccc(C(F)(F)F)c1 | 228 to 229 °C |
| CCCc1c[nH]c(-c2ccnc(NC(=O)c3ccccc3)c2)n1 | 95 to 97 °C |
| CC(C)c1cccc(C(C)C)c1NC(=O)CN1CCN(CCCSc2nc3ncccc3o2)CC1 | 125 to 127 °C |
| Clc1ccc(-c2cccnc2)cn1 | 113 to 115 °C |
| O=C(O)C(=O)c1ccc(OCCSc2ccc3ccccc3c2)cc1 | 121 to 123 °C |
| CS(=O)(=O)c1ccc(C2=C(c3ccc(F)cc3)C(=O)OC2)cc1 | 166 to 167 °C |

| Structure (SMILES) | melting point |
| --- | --- |
| CN(C)CCCOc1ccc(-c2nnc(CSCCOc3ccccc3)s2)cc1 | 72 to 73 °C |
| Oc1cccc(C2CCCN2Cc2ccccc2)c1 (stereo unspecified) | 113 to 115 °C |
| O=C1CCCNc2ccc(Cl)cc21 | 103 to 104 °C |
| CC(=O)NCC=C1CCc2c(Cl)cc3nn(C)cc3c21 | 177 to 178 °C |
| O=C(Nc1ccccc1F)N1CCc2cc(S(=O)(=O)N3CCN(c4cccc(Cl)c4)CC3)ccc21 | 174 to 175 °C |
| CCCCSc1cc(C(=O)OCC)cc(S(N)(=O)=O)c1Cl | 160 to 162 °C |
| CN1C(=O)CC[C@]2(C)c3ccc(Sc4nc5ccc(Cl)cc5s4)cc3CC[C@@H]12 | 156 to 162 °C |
| Cc1cnc2c(c1)CCCC2NC(N)=S (stereo unspecified) | 114 °C |
| CNc1c(F)cc2c(=O)c(C(=O)O)cn(-c3nc(N)c(F)cc3F)c2c1Br | 205 to 208 °C |
| O=C(O)c1cnccc1C(=O)c1ccc(F)cc1 | 231 to 232 °C |
| CCN1CS(=O)c2cccc(Cl)c21 (stereo unspecified) | 94 to 98 °C |
| COc1ccc(C)cc1NC(=O)Nc1ccc(C2=CCN(C(=O)Nc3cc(OCCO)ccc3Cl)CC2)cc1 | 139 to 142 °C |
| CC(=O)Oc1c(C)c(C)nc2ccccc12 | 93 to 94 °C |
| O=C1CCC(N2Cc3c(NCc4cccc(Cl)c4)cccc3C2=O)C(=O)N1 (stereo unspecified) | 253 to 255 °C |
| CC(C)c1nn(-c2ccc(C(F)(F)F)cn2)cc1COc1cc(C=O)n(C)n1 | 112 to 113 °C |
| CC(C)Oc1cc(-c2cn(C)c(C(F)(F)F)cc2=O)c(F)cc1Cl | 150 to 151 °C |
| COc1cc(OC)c(-c2cc3ccccc3n2C)cc1C=CC(=O)c1ccc(S(=O)(=O)N(C)C)cc1 | 120 to 122 °C |
| CCCCOc1ccc(CO)c(Oc2ncc(C(F)(F)F)cc2Cl)c1 | 77.8 to 79.2 °C |
| CC(=O)NC(C)c1ccc(CN2CCN(c3ccccn3)CC2)cc1 (stereo unspecified) | 120 to 121 °C |
| CC(C)(C)OC(=O)C(Br)c1ccc(Cl)c(Cl)c1 (racemic) | 88 °C |
| CCCOc1cc(/C=C/C(=O)OCC)n(Cc2ccccc2)n1 | 56 to 57 °C |
| CCCCC(CC)Nc1cc(C)nc(Cl)c1N (stereo unspecified) | 139 to 140 °C |
| CCN(CC)CCNC(=S)N(CCS(=O)(=O)c1ccccc1)C(C)C | 81.5 to 82.5 °C |
| COc1ccc(S(=O)(=O)N2C(=O)[C@@](c3ccccc3OC)(N3C[C@H](OC(N)=O)C[C@H]3C(=O)N(C)C)c3cc(Cl)ccc32)c(OC)c1 | 115 to 125 °C |

| Structure (SMILES) | melting point |
| --- | --- |
| CCCCC#Cc1ccc(-c2cc(C(F)(F)F)nn2-c2ccc(S(C)(=O)=O)cc2)cc1 | 96 to 98 °C |
| CS(=O)(=O)c1ccc(-c2cnn(-c3cccc(Cl)c3)c(=O)c2C2CCCC2)cc1 | 155 to 157 °C |
| CCN(CC)c1ccc2cc(-c3nc(C)c(C(=O)OC)s3)c(=O)oc2c1 | 252 to 253 °C |
| COC(=O)c1c(O)ccc(CNC(=O)CCCCCNC(=O)OC(C)(C)C)c1O | 73 to 76 °C |
| CN(c1cccc2cc(-c3ncc(CCl)s3)[nH]c12)S(=O)(=O)c1cccs1 | 204 to 205 °C |
| [O-][N+](=Cc1ccc(OCc2ccccc2)cc1)C1CCCCCCC1 | 108 °C |
| CCc1cc2c(ccc(=O)n2Cc2ccc(NC(=O)c3ccccc3C(=O)O)cc2)c(CC)n1 | 237 to 240 °C |
| COc1cc(N2CCC(N3CCCN(CCO)CC3)CC2)ccc1Nc1ncc2ccc(-c3ccccc3N(C)S(C)(=O)=O)n2n1 | 91 to 104 °C |
| Cc1cc(N2C=CC(O)CC2)nn2cnnc12 (stereo unspecified) | 171 to 173 °C |
| Cn1c(=O)n(C)c2cc(C(=O)CSCCC(=O)O)ccc21 | 174 to 176 °C |
| O=[N+]([O-])c1oc2ccc(CN3CCOCC3)cc2c1-c1ccccc1 | 151 to 154 °C |
| COc1ccc(Oc2c(C)cc(CC(=O)O)cc2C)cc1C(C)C | 118 to 120 °C |
| O=C(O)COC1Cc2sc(S(=O)(=O)C(c3ccccc3F)c3ccccc3F)nc2-c2ccccc21 (stereo unspecified) | 204 to 208 °C |
| CC(C)(C)OC(=O)NCCNC(=O)c1ncsc1-c1ccccc1 | 139 to 140 °C |
| CCOC(=NC(=O)Nc1ccc(OC(F)(F)F)cc1)c1c(F)cccc1F | 98 to 100 °C |
| CN1CCC23CC(=O)CCC2(O)C1Cc1ccccc13 (stereo unspecified) | 143 to 144 °C |
| CN(C)C(=O)C=Cc1c(C#N)cnn1-c1ncc(C(F)(F)F)cc1Cl | 116 to 120 °C |
| NCC1Cc2cc(-c3ccccc3)cc(-c3cccc(F)c3)c2O1 (stereo unspecified) | > 250 °C |
| Cc1cccc(-c2nc3cccnn3c2-c2ccnc(NC(=O)N3CCCCC3)c2)c1 | 173 to 175 °C |
| COc1nc2ccccc2cc1NC(=O)N1CCN(c2ccccc2Cl)CC1 | 79 to 80 °C |
| O=C(NCCCCN1CCC(c2ccc3ccccc3c2)CC1)c1ccc(NC(=O)c2ccc(Cl)cc2)cc1 | 270 °C |
| COc1cc(N)c(Cl)cc1C(=O)N[C@H]1CCN(C2CCC3(CC2)OCC(C)(C)CO3)C[C@H]1OC (relative stereo) | 188 °C |
| O=C1C=CC(O)(c2ccccc2)C=C1 | 102 to 103 °C |
| CC(O)(C(O)CBr)C(O)CBr (stereo unspecified) | 78 to 80 °C |
